This is an account of results in patent publication US12011475B2, “Polypeptide, polypeptide fragment, derivative thereof, and applications thereof” (CHENGDU HUITAI BIOMEDICINE CO., LTD., priority 2017, dated 2024).

Ends that are not written are not given here.

Holding throughout (format): in vivo
For assay [1], the system named is rat with pulmonary fibrosis induced by bleomycin. The assay is described as follows: Masson staining score, intravenous injection (Example 24). Conditions: fibrosis pathology score, grade 0 to 8; intravenous injection 10 mg/kg once a day, 4th to 13th day after bleomycin 4 mg/kg; Mean ± SEM. From the text: The lung tissue of the rats of Example 9 was taken, fixed with 4% paraformaldehyde and embedded in paraffin. The wax block embedded the lung tissue was sectioned along the largest cross section. Pathological changes in lung tissue were observed using staining by Masson's trichrome stain (Masson). Pathological changes in lung tissue were observed under a light microscope (low magnification) at a magnification of 100 times (the result is shown in FIG. 15).
According to the Modified Ashcroft scale scoring method, the degree of pulmonary fibrosis was evaluated according to the range of lesions and could be divided into 0 to 8 grades.
(§1) The rats were weighed before administration, intramuscularly injected with 65 mg/kg Zoletil anesthetic solution. After the rats entered the stage III anesthesia, the experimental rats were fixated in the lateral decubitus. Gavage needle size 12 was inserted into rat trachea through oral cavity along the glottis to instill sterile saline or bleomycin (4 mg/kg) (Day 0). After the anesthesia, the rats in control group were intratracheally instilled with an equal volume of sterile saline, and the rats in model group and treatment groups were intratracheally instilled with bleomycin (4 mg/kg). On the 4th day, the sterile saline or peptide drug was injected through the tail vein once a day until the 13th day. […]

Assay [2] has the same test system. Kind of assay: Rat weight, intratracheal instillation (Examples 15-16). Conditions: Day 14/Day 0, 8 mg/kg peptide + 4 mg/kg bleomycin simultaneously, Mean ± SEM. On the procedure: The rats were weighed before administration, intramuscular injection of Zoletil anesthetic solution, the dose was 65 mg/kg. After the rats entered the stage III anesthesia, the experimental rats were bond in the incline lateral decubitus. A size 12 gavage needle was inserted into rat trachea through oral cavity along the glottis to infuse the drug. The experimental animals were fed normally from the 1st day to the 14th day after intratracheal administration, and were weighed regularly every day without restriction of feed or drinking water.
The rats in model group were intratracheally instilled with bleomycin (4 mg/kg); after anesthesia, the rats in treatment groups were intratracheally instilled with bleomycin (4 mg/kg) and corresponding therapeutic drug (8 mg/kg) simultaneously. The remaining implementation steps were the same as the description of Example 9.
The model and the administration route were referred to Example 15. The experimental rats in the control group, the model group, and the treatment groups described in Example 15 were weighted every day from the 1st day until the 14th day. When weighing, the “unstable weighing” of the electronic balance was selected, and an appropriate number of weighing and a degree of tolerable instability during the reading phase were set according to the instructions to weigh and record the readings. […]

The subject of the next assay is active TGF-β. The assay is described as follows: Active TGF-β content in rat lung tissue by ELISA (Example 27). Conditions: active TGF-β/total TGF-β; intravenous injection 10 mg/kg once a day, 4th to 13th day after bleomycin 4 mg/kg; Mean ± SEM. The method, then: The rat lung tissue in the model group, the control group and the N4 treatment group of Example 9 was taken, and homogenized using RIPA lysate (100 mg of lung tissue corresponding to 1 mL of lysate), centrifuged and the supernatant was taken, and then the protein concentration was determined by BCA method. Equal amounts of protein samples were taken and the active TGF-β content was measured by enzyme-linked immunosorbent assay ELISA (Promega, Cat. No. G7591) (the result is shown in FIG. 10), and one-way ANOVA was used for biostatistical analysis.
The rats were weighed before administration, intramuscularly injected with 65 mg/kg Zoletil anesthetic solution. After the rats entered the stage III anesthesia, the experimental rats were fixated in the lateral decubitus. Gavage needle size 12 was inserted into rat trachea through oral cavity along the glottis to instill sterile saline or bleomycin (4 mg/kg) (Day 0). After the anesthesia, the rats in control group were intratracheally instilled with an equal volume of sterile saline, and the rats in model group and treatment groups were intratracheally instilled with bleomycin (4 mg/kg). […]
The rat lung tissue in the model group, the control group and the treatment groups of Example 20 was taken, and the active TGF-β content was measured by ELISA. […]
A general note: ELISA stands for enzyme-linked immunosorbent assay.

Assay [3] concerns rat with pulmonary fibrosis induced by bleomycin. Kind of assay: Hydroxyproline content in rat lung tissue, acid hydrolysis, intravenous injection (Example 25). Conditions: intravenous injection 10 mg/kg once a day, 4th to 13th day after bleomycin 4 mg/kg; Mean ± SEM. On the procedure: as §1, with “day. The rats were sacrificed on the 14th day for subsequent experiments. The rats in the control group were received no drug treatment; the rats in the model group were injected with sterile saline through the tail vein; the rats in the treatment groups were injected with corresponding peptide drug (10 mg/kg) through the tail vein.” for “day.”
The lung tissue in the model group, the control group and the treatment groups of Example 20 was taken, and the hydroxyproline content in lung tissue was detected using BioVision Hydroxyproline Acid Hydrolysis Assay Kit (Cat. No. K555-100), the result is shown in the HYP values in Table 4.

YRVRFLAKENVTQDAEDN [N1]: in assay [1], the “Masson Score” value is given as 3.85 ± 0.11. The “Weight Ratio” value in assay [2] was found to be 1.05 ± 0.02. For the same sequence, the “TGF-β (active TGF-β content in lung tissue)” value in the assay with active TGF-β came out at 13.15 ± 0.48. The “HYP (hydroxyproline content in lung tissue)” value in assay [3] worked out at 34.09 ± 5.01.
